Data from patent publication US9012446B2, “Amino-oxazines and amino-dihydrothiazine compounds as beta-secretase modulators and methods of use” (Amgen Inc., priority 2010, dated 2015).
Read-outs that look alike come from different tables or passages of the source.

Experiments:
Aβ40 = assay: In vitro BACE cell-based assay (Aβ40 sandwich ELISA, cells stably expressing APP)
Experimental: In Vitro BACE Cell-Based Assay […] Cells stably expressing Amyloid Precursor Protein (APP) were plated at a density of 40K cells/well in 96 well plates (Costar). The cells were cultivated for 24 hours at 37° C. and 5% CO2 in DMEM supplemented with 10% FBS. The test compounds were then added to cells in 10-point dose response concentrations with the starting concentration being either 100 μM or 10 μM. The compounds were diluted from stock solutions in DMSO and the final DMSO concentration of the test compounds on cells was 0.1%. […] The IC50 of the compound was calculated from the percent of control or percent inhibition of Aβ40 as a function of the concentration of the test compound. The sandwich ELISA to detect Aβ40 was performed in 96 well microtiter plates, which were pre-treated with goat anti-rabbit IgG (Pierce). […] The optimal concentration for the pAb40 antibody was 3 μg/ml in Superblock/TBS (Pierce) that was supplemented with 0.05% Tween 20 (Sigma). […] Cellular supernatants were incubated with the capture antibody for 3 h at 4° C., followed by 3 wash steps in TBS-tween (0.05%). The detecting antibody incubation was for 2 h at 4° C., again followed by the wash steps as described previously. The final readout of the ELISA is Time-Resolved Fluorescence (counts per minute) using Delfia reagents Streptavidin-Europium and Enhancement solutions (Perkin Elmer) and the Victor 2 multilabel counter (Perkin Elmer).

BACE = BACE (Homo sapiens, UniProt P56817); assay: In vitro enzymatic BACE FRET assay; assay type: biochemical; details: average IC50, enzyme assay; read-out: BACE 1 FRET assay
Experimental: In Vitro Enzymatic BACE FRET (Fluorescence Resonance Energy Transfer) Assay (Enzyme Assay Data in the Example Table I) The assay buffer used in this screen is 0.05 M acetate, pH 4.2, 10% DMSO final, 100 uM genapol (which is a nonionic detergent, below its Critical Micelle Concentration). The beta secretase enzyme (0.2 nM) is pre-incubated for one hour with inhibitors, typically in about 1 uL of DMSO according to a serial dilution, are added thereto. This assay is effectively started by the addition of FRET substrate (50 nM) and the combination is incubated for one hour. The FRET assay is terminated with by addition of Tris buffer, which raises the pH to neutrality, and the fluorescence is determined. The FRET substrate is a peptide with commercially available fluorophore and quencher, on opposite sides of the BACE cleavage site. Proteolytic cleavage of the FRET substrate releases quenching of fluorescence (excitation 488 nm and emission […]).

[1] = Homo sapiens, HEK293, average IC50, read-out: HEK cell assay
[2] = average IC50, read-out: HEK cell assay
[3] = Homo sapiens, HEK293, average IC50, cell assay, HEK cells

Sequence of BACE (P56817 46-501, species assumed): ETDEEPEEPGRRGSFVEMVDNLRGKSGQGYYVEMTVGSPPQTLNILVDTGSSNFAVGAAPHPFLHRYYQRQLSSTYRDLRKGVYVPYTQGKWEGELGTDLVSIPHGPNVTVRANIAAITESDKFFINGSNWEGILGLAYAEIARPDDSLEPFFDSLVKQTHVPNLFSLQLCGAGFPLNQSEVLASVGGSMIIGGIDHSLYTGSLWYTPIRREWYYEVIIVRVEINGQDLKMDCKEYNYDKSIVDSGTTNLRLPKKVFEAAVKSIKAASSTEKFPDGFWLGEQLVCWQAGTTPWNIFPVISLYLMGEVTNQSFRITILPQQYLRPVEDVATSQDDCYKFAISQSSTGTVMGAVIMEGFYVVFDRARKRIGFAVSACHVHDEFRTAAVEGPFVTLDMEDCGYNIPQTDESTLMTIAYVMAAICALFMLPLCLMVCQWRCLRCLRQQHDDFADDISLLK

Row | Structure (SMILES) | IC50 (BACE) | further results
1 | NC1=N[C@@]2(CO[C@H]1C1CCCCC1)c1cc(-c3cccnc3F)ccc1Oc1cnc(Cl)cc12 (racemic) [Example 56A, (3′S,6′S)-3-chloro-6′-cyclohexyl-7-(2-fluoropyridin-3-yl)-2′,6′-dihydrospiro[chromeno[2,3-c]pyridine-5,3′-[1,4]oxazin]-5′-amine] | 0.0307 µM | IC50 (Aβ40; [1]): 0.138 µM
2 | NC1=N[C@]2(CO[C@H]1C1CCCCC1)c1cc(-c3cccnc3F)ccc1Oc1cnc(Cl)cc12 (racemic) [Example 56B, (3′R,6′S)-3-chloro-6′-cyclohexyl-7-(2-fluoropyridin-3-yl)-2′,6′-dihydrospiro[chromeno[2,3-c]pyridine-5,3′-[1,4]oxazin]-5′-amine] | 1.28 µM | IC50 (Aβ40; [1]): 0.452 µM
3 | COc1cc(F)c2c(c1)C1(CCOC(N)=N1)c1cc(Br)ccc1O2 (racemic) [compound 20] | 15.4 µM | 
4 | NC1=N[C@]2(CCO1)c1cc(-c3cccnc3F)ccc1Oc1c2cc(-c2ccnc(F)c2)nc1F (racemic) [compound 103] | 0.0022 µM | IC50 (Aβ40; average IC50, cell assay, HEK cells): 0.0069 µM
5 | COc1cc(F)c2c(c1)[C@@]1(CCSC(N)=N1)c1cc(-c3cccnc3F)ccc1O2 (racemic) [compound 191] | 0.0873 µM | IC50 (Aβ40; [2]): 0.374 µM
6 | NC1=N[C@]2(CO[C@@H]1C1CCOCC1)c1cc(-c3cccnc3F)ccc1Oc1cnc(Cl)cc12 (racemic) [compound 207] | 0.0115 µM | IC50 (Aβ40; [2]): 0.0213 µM
7 | NC1=N[C@@]2(COC1)c1cc(Br)ccc1Oc1cnc(Cl)cc12 (single isomer, unassigned) [Example 9A] | 4.15 µM | 
8 | NC1=N[C@]2(COC1)c1cc(Br)ccc1Oc1cnc(Cl)cc12 (single isomer, unassigned) [Example 9B] | 23.1 µM | 
9 | NC1=N[C@]2(COC1)c1cc(-c3cccnc3F)ccc1Oc1c(F)cc(N3CCOCC3)cc12 [35B] | 0.211 µM | IC50 (Aβ40; [3]): 0.0862 µM
10 | NC1=N[C@]2(COC1)c1cc(-c3cccnc3F)ccc1Oc1c(F)cc(-c3ccnc(F)c3)cc12 [36B] | 0.14 µM | IC50 (Aβ40; [3]): 0.628 µM
11 | CC(C)(F)COc1cc(F)c2c(c1)[C@@]1(COCC(N)=N1)c1cc(-c3cccnc3F)ccc1O2 [37B] | 0.11 µM | IC50 (Aβ40; [3]): 0.0641 µM
12 | NC1=N[C@@]2(COC1)c1cc(-c3cccnc3F)ccc1Oc1cnc(C3CCOCC3)cc12 [Example 34, (S)-7-(2-fluoropyridin-3-yl)-3-(tetrahydro-2H-pyran-4-yl)-2′,6′-dihydrospiro[chromeno[2,3-c]pyridine-5,3′-[1,4]oxazin]-5′-amine] | 0.0007 µM | IC50 (Aβ40; [3]): 0.0009 µM
13 | NC1=N[C@@]2(COC1)c1cc(-c3cccnc3F)ccc1Oc1c(F)cc(N3CCOCC3)cc12 [Example 35A, (S)-4′-fluoro-7′-(2-fluoropyridin-3-yl)-2′-morpholino-2,6-dihydrospiro[[1,4]oxazine-3,9′-xanthen]-5-amine] | 0.0005 µM | IC50 (Aβ40; [3]): 0.0019 µM
14 | NC1=N[C@@]2(COC1)c1cc(O)ccc1Oc1c(F)cc(-c3ccnc(F)c3)cc12 [Example 39, (S)-5-amino-4′-fluoro-2′-(2-fluoropyridin-4-yl)-2,6-dihydrospiro[[1,4]oxazine-3,9′-xanthen]-7′-ol] | 0.368 µM | IC50 (Aβ40; [3]): 2.59 µM
15 | NC1=N[C@@]2(COC1)c1cc(-c3cccnc3F)ccc1Oc1c(F)cc(C3CCOCC3)cc12 [Example 42, (S)-4′-fluoro-7′-(2-fluoropyridin-3-yl)-2′-(tetrahydro-2H-pyran-4-yl)-2,6-dihydrospiro[[1,4]oxazine-3,9′-xanthen]-5-amine] | 0.0004 µM | IC50 (Aβ40; [3]): 0.0024 µM
16 | CC(C)(C)COc1cc2c(cn1)Oc1ccc(-c3cccnc3F)cc1[C@@]21COCC(NC=O)=N1 [Example 43, (S)—N-(7-(2-fluoropyridin-3-yl)-3-(neopentyloxy)-2′,6′-dihydrospiro[chromeno[2,3-c]pyridine-5,3′-[1,4]oxazine]-5′-yl)formamide] | 0.0174 µM | IC50 (Aβ40; [3]): 0.0012 µM
17 | CC(C)(C)COc1cc2c(cn1)Oc1ccc(N3CCC(F)(F)CC3)cc1[C@@]21COCC(N)=N1 [Example 44, (S)-7-(4,4-difluoropiperidin-1-yl)-3-(neopentyloxy)-2′,6′-dihydrospiro[chromeno[2,3-c]pyridine-5,3′-[1,4]oxazin]-5′-amine] | 0.0105 µM | IC50 (Aβ40; [3]): 0.0193 µM
18 | COc1cc(F)c2c(c1)[C@]1(COCC(N)=N1)c1cc(N3CCC(F)(F)CC3)ccc1O2 [Example 45, (S)-7′-(4,4-difluoropiperidin-1-yl)-4′-fluoro-2′-methoxy-2,6-dihydrospiro[[1,4]oxazine-3,9′-xanthen]-5-amine] | 0.158 µM | IC50 (Aβ40; [3]): 0.42 µM
19 | CC1(COc2cc(F)c3c(c2)[C@]2(COCC(N)=N2)c2cc(N4CCC(F)(F)CC4)ccc2O3)COC1 [Example 46, (S)-7′-(4,4-difluoropiperidin-1-yl)-4′-fluoro-2′-((3-methyloxetan-3-yl)methoxy)-2,6-dihydrospiro[[1,4]oxazine-3,9′-xanthen]-5-amine] | 0.0094 µM | IC50 (Aβ40; [1]): 0.0321 µM
20 | COc1cc(F)c2c(c1)[C@]1(COCC(N)=N1)c1cc(-c3cccnc3F)ccc1O2 [Example 48, (S)-4′-fluoro-7′-(2-fluoropyridin-3-yl)-2′-methoxy-2,6-dihydrospiro[[1,4]oxazine-3,9′-xanthen]-5-amine] | 0.0015 µM | IC50 (Aβ40; [3]): 0.0156 µM

Row | Structure (SMILES) | IC50 (BACE) | further results
21 | NC1=N[C@@]2(COC1)c1cc(-c3cccnc3F)ccc1Oc1cnc(OC(F)F)cc12 [Example 49, (S)-3-(difluoromethoxy)-7-(2-fluoropyridin-3-yl)-2′,6′-dihydrospiro[chromeno[2,3-c]pyridine-5,3′-[1,4]oxazin]-5′-amine] | 0.0067 µM | IC50 (Aβ40; [1]): 0.0115 µM
22 | COc1cc2c(cn1)Oc1ccc(-c3ccc(F)c(F)c3)cc1[C@@]21COCC(N)=N1 [Example 50, (S)-7-(3,4-difluorophenyl)-3-methoxy-2′,6′-dihydrospiro[chromeno[2,3-c]pyridine-5,3′-[1,4]oxazin]-5′-amine] | 0.0309 µM | IC50 (Aβ40; [1]): 0.106 µM
23 | CC(C)(C)C#Cc1cnc2c(c1)[C@]1(COCC(N)=N1)c1cc(-c3cccnc3)ccc1O2 [Example 52, (S)-3-(3,3-dimethylbut-1-ynyl)-7-(pyridin-3-yl)-2′,6′-dihydrospiro[chromeno[2,3-b]pyridine-5,3′-[1,4]oxazin]-5′-amine] | 0.0004 µM | IC50 (Aβ40; [1]): 0.0003 µM
24 | CC(C)(C)COc1ccc2c(c1)[C@]1(COCC(N)=N1)c1cc(Br)ccc1O2 [Example 67a, (3R)-2′-bromo-7′-(2,2-dimethylpropoxy)-6H-spiro[1,4-oxazine-3,9′-xanthen]-5-amine] |  | IC50 (Aβ40; [1]): 0.587 µM
25 | NC1=NC2(COC1)c1cc(Br)ccc1Oc1cnc(Cl)cc12 (centres unmarked) [compound 9] | 4.13 µM | 
26 | NC1=NC2(CCS1)c1cc(Br)ccc1Oc1ccc(I)cc12 (centres unmarked) [compound 13] | 9.96 µM | 
27 | NC1=NC2(CCO1)c1cc(I)ccc1Oc1ncc(Br)cc12 (centres unmarked) [compound 25] | 16 µM | 
28 | COc1ccc2c(c1)[C@]1(COCC(N)=N1)c1cc(Br)ccc1O2 [compound 134] | 7.11 µM | 
29 | COc1ccc2c(c1)C1(CCSC(N)=N1)c1cc(Br)ccc1O2 (centres unmarked) [compound 136] | 23.7 µM | 
30 | NC1=N[C@@]2(CCO1)c1cc(-c3cccnc3F)ccc1Oc1cnc(-c3ccccc3)cc12 [compound 138] | 0.0041 µM | 
31 | COc1cc(F)c2c(c1)[C@@]1(CCOC(N)=N1)c1cc(-c3cccnc3F)ccc1O2 [compound 174] | 4.22 µM | 
32 | COc1cc(F)c2c(c1)[C@@]1(CCSC(N)=N1)c1cc(-c3cccnc3F)ccc1O2 [compound 186] | 9.59 µM | 
33 | NC1=N[C@@]2(CO[C@@H]1C(F)(F)F)c1cc(Br)ccc1Oc1cnc(Cl)cc12 [compound 205] | 20 µM | 
34 | NC1=N[C@@]2(CCO1)c1cc(-c3cccnc3F)ccc1Oc1c2cc(-c2ccccc2)nc1F [compound 230] | 0.002 µM | 
35 | NC1=N[C@]2(CCO1)c1cc(-c3cccnc3F)ccc1Oc1c2cc(-c2ccccc2)nc1F [compound 235] | 0.176 µM | 
36 | CC1COC(N)=N[C@@]12c1cc(-c3cccnc3F)ccc1Oc1cnc(C3=CCCOC3)cc12 (some centres unmarked) [compound 261] | 0.89 µM | 
37 | C[C@@H]1COC(N)=N[C@]12c1cc(-c3cccnc3F)ccc1Oc1cnc(C3=CCCOC3)cc12 [compound 262] | 0.0041 µM | 
38 | C[C@H]1COC(N)=N[C@@]12c1cc(-c3cccnc3F)ccc1Oc1cnc(C3=CCCOC3)cc12 [compound 263] | 0.449 µM | 
39 | CC1COC(N)=N[C@]12c1cc(-c3cccnc3F)ccc1Oc1cnc(C3=CCCOC3)cc12 (some centres unmarked) [compound 264] | 0.0037 µM | 
